From the supplement of paper PMC11579375

Assays:
Assay in all cases: area under the viability dose-response curve (AUC) (AUC (arbitrary units, max 500 = no viability loss)); higher = less sensitive (higher viability)
Settings in all cases: exposure time: 120 h; concentration range: 0.1 nM - 10 µM, 6 doses
[1] = test system: 13E (embryonal-type hepatoblastoma organoid)
Procedure: (§1)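 Patient-derived hepatoblastoma tumor organoids (about 50 organoids per well, 384-well plates, medium with 5% BME) were treated with the PMC pediatric cancer drug library. Each drug was tested in duplicate at 6 concentrations (0.1 nM to 10 µM, 10-fold steps).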

[2] = test system: 17E (embryonal-type hepatoblastoma organoid)
Procedure: as §1

[3] = test system: 22E (embryonal-type hepatoblastoma organoid)
Procedure: as §1

[4] = test system: 17F1 (fetal-I hepatoblastoma organoid with intermediate liver markers)
Procedure: as §1

[5] = test system: 135F2 (fetal-II hepatoblastoma organoid with high liver markers)
Procedure: as §1

[6] = test system: 10F2 (fetal-II hepatoblastoma organoid with high liver markers)
Procedure: as §1

[7] = test system: 96F1 (fetal-I hepatoblastoma organoid with intermediate liver markers)
Procedure: as §1

[8] = test system: 8F1 (fetal-I hepatoblastoma organoid with intermediate liver markers)
Procedure: as §1

[9] = test system: 3E (embryonal-type hepatoblastoma organoid)
Procedure: as §1

[10] = test system: 27F1 (fetal-I hepatoblastoma organoid with intermediate liver markers)
Procedure: as §1

[11] = test system: 13F2 (fetal-II hepatoblastoma organoid with high liver markers)
Procedure: as §1

SMILES	area under the viability dose-response curve [1]	area under the viability dose-response curve [2]	area under the viability dose-response curve [3]	area under the viability dose-response curve [4]	area under the viability dose-response curve [5]	area under the viability dose-response curve [6]	area under the viability dose-response curve [7]	area under the viability dose-response curve [8]	area under the viability dose-response curve [9]	area under the viability dose-response curve [10]	area under the viability dose-response curve [11]
CNC(=O)CN1CCC(Oc2cc3c(Nc4cccc(Cl)c4F)ncnc3cc2OC)CC1 [Sapitinib]	> 500	491	492	464	458	235	404	439	431	338	312
Cc1cccc(-c2nn3c(c2-c2ccnc4ccc(C(N)=O)cc24)CCC3)n1 [Galunisertib]	493	> 500	482	> 500	493	465	481	> 500	> 500	> 500	> 500
CNC(=O)c1cccc(-c2ccc3c(N4CCOC[C@@H]4C)nc(N4CCOC[C@@H]4C)nc3n2)c1 [Vistusertib]	409	392	426	498	407	324	460	470	376	407	342
COc1cc(OC)cc(N(CCNC(C)C)c2ccc3ncc(-c4cnn(C)c4)nc3c2)c1 [Erdafitinib]	341	231	345	499	496	448	498	489	227	467	323
CC(C)NC[C@@H](C(=O)N1CCN(c2ncnc3c2[C@H](C)C[C@H]3O)CC1)c1ccc(Cl)cc1 [Ipatasertib]	456	437	433	495	496	433	445	434	436	483	442
N#CC[C@H](C1CCCC1)n1cc(-c2ncnc3[nH]ccc23)cn1 [Ruxolitinib]	> 500	487	440	478	491	492	490	> 500	462	> 500	487
CC(C)(O)CNc1nc(Nc2ccnc(C(F)(F)F)c2)nc(-c2cccc(C(F)(F)F)n2)n1 [Enasidenib]	> 500	> 500	> 500	> 500	> 500	> 500	> 500	> 500	> 500	> 500	> 500
COc1cc([C@@H]2c3cc4c(cc3[C@@H](O[C@@H]3O[C@@H]5CO[C@@H](C)O[C@H]5[C@H](O)[C@H]3O)[C@H]3COC(=O)[C@H]23)OCO4)cc(OC)c1O [Etoposide]	380	349	446	438	389	388	383	477	378	446	359
COc1ccc(Cn2ccc3ccc(C(=O)NO)cc32)cc1	490	475	452	484	488	454	487	474	452	483	472
C[C@@H](Oc1cc(-n2cnc3ccc(CN4CCN(C)CC4)cc32)sc1C(N)=O)c1ccccc1C(F)(F)F	262	277	256	276	254	250	361	358	246	262	268
CC(C)C[C@H](NC(=O)[C@H](CCc1ccccc1)NC(=O)CN1CCOCC1)C(=O)N[C@@H](Cc1ccccc1)C(=O)N[C@@H](CC(C)C)C(=O)[C@@]1(C)CO1 [Carfilzomib]	362	247	347	269	194	323	355	350	242	332	217
Cc1ccc(C(=O)Nc2ccc(Oc3cc4cnn(C)c4cc3-c3cn[nH]c3)c(F)c2)c(=O)n1-c1ccc(F)cc1 [Merestinib]	463	486	464	> 500	487	432	> 500	484	452	> 500	466
COc1ccc(-c2nc(N3CCOCC3)c3sc(CN(C)c4ncc(C(=O)NO)cn4)cc3n2)cn1 [Fimepinostat]	236	158	237	255	166	169	235	296	161	255	167
C[C@@H]1C[C@H]2[C@@H]3CCC4=CC(=O)C=C[C@]4(C)[C@@]3(F)[C@@H](O)C[C@]2(C)[C@@]1(O)C(=O)CO [Dexamethasone]	473	> 500	497	477	472	> 500	> 500	484	> 500	> 500	494
CCc1c2c(nc3ccc(O)cc13)-c1cc3c(c(=O)n1C2)COC(=O)[C@]3(O)CC [SN-38 (Irinotecan)]	266	200	312	189	156	173	173	251	156	178	162
